Measured values from article PMC4999848 (Toxins, 2016).
Where “and” joins values, the source holds several entries; their conditions need not be identical. Equal entries are not always repeated. Entries after “also recorded” stand apart in the source; their conditions may differ.

Key:
[1] = Deacetylation of 3/15ADON by kidney S9 fraction; type: in vitro ADME, human; details: for Disappearance of 3/15ADON, specific activity: S9 kidney 0.1 mg/mL, 37 °C, substrate 100 μM; for Activity of renal S9 fraction on 3/15ADON: in words
Procedure: (§1) Stock solutions of DON, 3ADON and 15ADON at 2 mg/mL were prepared in absolute ethanol and stored at −20 °C. For deacetylation assay, 3- or 15ADON were incubated with cells, explants, bacteria or digestive enzymes after being diluted in PBS^++ at a final concentration of 100 μM. PBS^++ solution containing only ethanol (at 1.5% final concentration) or DON (at 100 μM) were used in parallel as negative and positive control, respectively. For cells and explants, deacetylation assay take place in 6-well plates, wells being filled with 2 mL of PBS^++ containing either ethanol, DON, 3- or 15ADON. For fecal bacteria and digestive enzyme assay, deacetylation assay was conducted in 2 mL Eppendorf tubes filled with 1.5 mL of PBS^++ containing either ethanol, DON, 3- or 15ADON. In vitro intestinal digestion by luminal enzymes was performed using porcine enzymes from Sigma-Aldrich and physiological conditions. Briefly, 3- or 15ADON were incubated with pepsin (at 1.6 mg/mL corresponding to 900 U/mL), trypsin (at 0.35 mg/mL corresponding to 6000 U/mL), pancreatic lipase (at 0.75 mg/mL corresponding to 18 U/mL) or pancreatin (at 1.23 mg/mL, lipase activity >10 U/mL, protease activity >100 U/mL, amylase activity >100 U/mL). Except for pepsin for which the digestion was conducted in HCl solution at 10 mM (pH 2.3), in vitro digestion was performed in PBS^++ (pH 7.4). Finally, deacetylation assay was also performed with commercial pooled S9 fractions from human liver, small intestine and kidneys as well as with pure recombinant human CES1 and CES2. S9 fractions and CES1/2 were used at 0.1 mg/mL and 5 μg/mL (corresponding to CES activity >20 U/mL), respectively. In all cases, aliquots of the reaction solution were collected immediately (i.e., “time zero” sample) or after the indicated time period at 37 °C and analyzed by HPLC. […] In all cases, the experiments were conducted in triplicate (n = 3).
Deacetylation was monitoring both in term of disappearance of 3- or 15ADON and formation of DON. Measurement of DON, 3ADON and 15ADON concentrations was performed by reversed-phase HPLC using Waters Alliance System equipped with a Waters 2690 XE separation module and a Waters 996 photodiode array detector (Waters, Saint Quentin Falavier, France). The separation was achieved by mean of a LiChroCart column (125 mm × 4 mm) packed with 5 μm RP-18 Purospher gel (Merck, Darmstadt, Germany) and equipped with a LiChroCart precolumn (4 mm × 4 mm) packed with the same material (Merck). The precolumn and column were placed in room temperature. […] Quantification was based on calibration with the corresponding standard using Millinium Software (Waters, Saint Quentin Falavier, France).

[2] = molecular target: T1, recombinant human CES2 (Homo sapiens, UniProt O00748); assay: Deacetylation of 3/15ADON by recombinant CES2; type: in vitro ADME; set-up: purchased R&D Systems; details: 5 μg/mL CES2, up to 24 h, data not shown
T1 sequence (O00748 27-559): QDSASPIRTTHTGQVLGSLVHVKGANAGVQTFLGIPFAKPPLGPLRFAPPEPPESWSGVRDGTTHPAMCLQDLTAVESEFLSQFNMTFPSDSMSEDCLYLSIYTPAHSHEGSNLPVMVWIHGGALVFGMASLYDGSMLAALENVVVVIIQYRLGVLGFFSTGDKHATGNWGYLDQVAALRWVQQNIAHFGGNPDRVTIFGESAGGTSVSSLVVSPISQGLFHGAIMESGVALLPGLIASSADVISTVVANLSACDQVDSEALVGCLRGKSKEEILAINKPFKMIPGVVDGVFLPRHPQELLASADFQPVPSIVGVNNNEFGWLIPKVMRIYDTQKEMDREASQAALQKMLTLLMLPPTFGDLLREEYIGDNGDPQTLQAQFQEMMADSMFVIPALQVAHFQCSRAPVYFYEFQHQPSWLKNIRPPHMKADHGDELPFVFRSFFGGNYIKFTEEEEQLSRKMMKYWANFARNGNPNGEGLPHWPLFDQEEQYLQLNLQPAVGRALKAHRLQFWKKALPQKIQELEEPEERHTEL
Procedure: (§2) Stock solutions of DON, 3ADON and 15ADON at 2 mg/mL were prepared in absolute ethanol and stored at −20 °C. For deacetylation assay, 3- or 15ADON were incubated with cells, explants, bacteria or digestive enzymes after being diluted in PBS^++ at a final concentration of 100 μM. PBS^++ solution containing only ethanol (at 1.5% final concentration) or DON (at 100 μM) were used in parallel as negative and positive control, respectively. For cells and explants, deacetylation assay take place in 6-well plates, wells being filled with 2 mL of PBS^++ containing either ethanol, DON, 3- or 15ADON. For fecal bacteria and digestive enzyme assay, deacetylation assay was conducted in 2 mL Eppendorf tubes filled with 1.5 mL of PBS^++ containing either ethanol, DON, 3- or 15ADON. In vitro intestinal digestion by luminal enzymes was performed using porcine enzymes from Sigma-Aldrich and physiological conditions. […] In all cases, aliquots of the reaction solution were collected immediately (i.e., “time zero” sample) or after the indicated time period at 37 °C and analyzed by HPLC. […]
(§3) Deacetylation was monitoring both in term of disappearance of 3- or 15ADON and formation of DON. […] Quantification was based on calibration with the corresponding standard using Millinium Software (Waters, Saint Quentin Falavier, France).

[3] = test system: pepsin and pancreatic enzymes (pancreatin, trypsin, lipase); assay: Deacetylation of 3/15ADON by luminal digestive enzymes (taken together); type: in vitro ADME, porcine; details: percentage of sum of specific activities (Figure 8)
Procedure: as §2, §3

[4] = test system: liver explant; assay: Deacetylation of 3/15ADON by human liver explants; type: in vitro ADME; details: for % of deacetylation: hepatic explants, 6 h incubation, 100 μM; for Disappearance of 3/15ADON, specific activity: liver explant, 37 °C, substrate 100 μM; for Contribution to total deacetylation activity: Liver: percentage of sum of specific activities (Figure 8)
Source text: Human tissue samples were obtained from patients undergoing surgery at the Hospital Nord of Marseille, unit of general and gastrointestinal surgery according to a collaborative “clinical transfer” project. The procedures were approved by the French ethic committee (CODECOH n° DC-2011-1319). Patients were from both genders (six men, three women), 31–74 years of age, all of European origin. All patients agree to use their tissues for research purposes. Samples were taken from macroscopically unaffected area as identified by the surgeon for intestinal samples or the pathologist for liver resections. Diagnoses leading to surgery were carcinoma for intestine or liver. After resection, the specimens were placed in ice-cold non-sterile Krebs solution implemented and transferred to the school of medicine on the same campus within 5 min, composition of the Krebs solution being previously described. The tissues were rinsed several times and maintained in oxygenated Krebs during 1 h for recovery before final dissection. Intestinal and hepatic resections were extensively washed and maintained in ice-cold culture media containing 1% streptomycin/penicillin solution and 50 μg/mL gentamycin. Tissues were cleaned from vascular vessels and conjunctive tissue using forceps under binocular microscope. In case of intestinal resection, muscularis and plexus were removed and only epithelial layer was kept. Intestinal and hepatic explants (wet weight of 20–30 mg) were then isolated from the cleaned resections using surgical punch (diameter of […]). […] Finally, the explants were washed 3 times with PBS^++ and transferred into 6-well plates before being used for deacetylation assay.
as §1

Structure (SMILES) | Disappearance of 3/15ADON, specific activity [1] | Activity of renal S9 fraction on 3/15ADON [1] | Deacetylation activity of CES2 on 3/15ADON [2] | Contribution to total deacetylation activity: Pancreatic enzymes [3] [%] | % of deacetylation [4] | Disappearance of 3/15ADON, specific activity [4] | Contribution to total deacetylation activity: Liver [4] [%]
CC(=O)O[C@@H]1C[C@]2(C)[C@@]3(CO)[C@H](O)C(=O)C(C)=C[C@H]3O[C@H]1[C@@]21CO1 [3ADON, 3-acetyldeoxynivalenol] | 33 pmol/min/mg and 33 ± 8.3 pmol/min/mg | minor activity, if any | failed at observing any deacetylation activity; also recorded: unable to cause the deacetylation | 10 | 54.6% ± 15.4% | 714 pmol/min/mg and 714 ± 198 pmol/min/mg | 56
CC(=O)OC[C@]12[C@H](O)C(=O)C(C)=C[C@H]1O[C@@H]1[C@H](O)C[C@@]2(C)[C@]12CO2 [15ADON, 15-acetyldeoxynivalenol] | 16 pmol/min/mg and 16 ± 5.8 pmol/min/mg | minor activity, if any | failed at observing any deacetylation activity; also recorded: unable to cause the deacetylation | 26 | 24.6% ± 2.8% | 330 pmol/min/mg and 330 ± 34 pmol/min/mg | 52
